According to patent USRE50528E1, “Compounds and compositions for modulating EGFR mutant kinase activities” (Yuhan Corporation, priority 2014, dated 2025):
Read-outs that look alike come from different tables or passages of the source.

Key:
[1] = tested on: PC9 (EGFR del E746-A750 mutant); test: Cell viability assay, PC9; type: cell-based; details: for Selectivity over wildtype, Wildtype vs mutant H2073/PC9 (fold): cellular potency ratio; for IC50: cellular potency, 72-hour incubation, ATPLite, read-out: EGFR Mutants PC9;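 for all read-outs here: NSCLC PC9 cells, whose viability relies on EGFR del E746-A750, exposed to serially diluted compound for 72 h at 37 °C, ATPLite read-out, IC50, H2073 as EGFR wildtype line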
EGFR mutant L858R/T790M = target: T1, EGFR mutant L858R/T790M (Homo sapiens, UniProt P00533, L858R/T790M); test: Kinase inhibition assay, EGFR L858R/T790M; type: biochemical; details: read-out: EGFR mutants L858R/T790M;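 note: truncated human enzyme preincubated two hours with compound, then one hour with one millimolar ATP and ULight-PolyGT peptide, Europium-labeled antibody detection, IC50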
T1 construct: truncated human JAK3, EGFR mutants such as del E746-A750; purchased Carna Biosciences

JAK3 = target: T2, JAK3 (Homo sapiens, UniProt P52333); test: Kinase inhibition assay, JAK3; details: biochemical potency;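 note: IC50 against purified truncated human JAK3 preincubated with compound, then reacted with ATP and ULight-Jak1 peptide, phosphorylation read by Europium-labeled antibody LANCE detection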
T2 construct: EGFR and JAK3 (JH1domain-catalytic) kinases, and mutant forms thereof; purchased Carna Biosciences

[2] = target: T3, EGFR mutant Del19 (E746-A750) (Homo sapiens, UniProt P00533, DEL746-750); test: Kinase inhibition assay, EGFR del E746-A750; type: biochemical; details: read-out: EGFR mutants Del19 (E746-A750);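 note: truncated human EGFR mutant kinase, two-hour preincubation with compound, then one-hour reaction with ATP and ULight-PolyGT peptide, LANCE Europium-antibody phosphorylation readout, IC50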
T3 construct: truncated human JAK3, EGFR mutants such as del E746-A750; purchased Carna Biosciences

SYK = target: T4, SYK (Homo sapiens, UniProt P43405); test: Kinase inhibition assay, SYK; type: biochemical; details: biochemical potency;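 note: purified full-length human SYK pre-incubated 30 min with compound, then ULight-TK peptide phosphorylation for 1 h, detected with Europium-labeled antibody in Lance buffer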
T4 construct: Purified human, full-length SYK, KDR; purchased Carna Biosciences

KDR = target: T5, KDR (Homo sapiens, UniProt P35968); test: Kinase inhibition assay, KDR; type: biochemical; details: biochemical potency;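 note: purified full-length human KDR, 30 min preincubation with compound, then 1 h reaction with ATP and Ulight-Jak1 peptide substrate, phosphorylation read by Lance Europium antibody detection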
T5 construct: Purified human, full-length SYK, KDR; purchased Carna Biosciences

EGFR mutant L858R = target: T6, EGFR mutant L858R (Homo sapiens, UniProt P00533, L858R); test: Kinase inhibition assay, EGFR L858R; type: biochemical; details: read-out: EGFR mutants L858R;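 note: truncated human EGFR L858R kinase with compound preincubation, ULight-PolyGT peptide phosphorylation read by Europium-antibody Lance detection, IC50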
T6 construct: truncated human JAK3, EGFR mutants such as del E746-A750; purchased Carna Biosciences

H2073 (EGFR wildtype) = test: Cell viability assay, H2073; type: cell-based; details: cellular potency, 72-hour incubation, ATPLite;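 note: NSCLC cell line whose survival relies on wildtype EGFR, treated with serially diluted compound, cytotoxic effect judged from remaining cell viability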
EGFR mutant T790M = target: T7, EGFR mutant T790M (Homo sapiens, UniProt P00533, T790M); test: Kinase inhibition assay, EGFR mutant T790M; details: biochemical potency;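 note: truncated human EGFR mutant enzyme preincubated two hours with compound, then ATP plus ULight-PolyGT peptide for one hour, Europium-labeled antibody LANCE detection, IC50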
T7 construct: truncated human JAK3, EGFR mutants such as del E746-A750; purchased Carna Biosciences

EGFR mutant Del19/T790M = target: T8, EGFR mutant Del19/T790M (Homo sapiens, UniProt P00533, DEL746-750/T790M); test: Kinase inhibition assay, EGFR del E746-A750/T790M; type: biochemical; details: read-out: EGFR mutants Del19/T790M
T8 construct: truncated human JAK3, EGFR mutants such as del E746-A750; purchased Carna Biosciences

[3] = tested on: H1975 (EGFR L858R/T790M mutant); test: Cell viability assay, H1975; type: cell-based; details: for IC50: cellular potency, 72-hour incubation, ATPLite, read-out: EGFR Mutants H1975; for Selectivity over wildtype, Wildtype vs mutant H2073/H1975 (fold): cellular potency ratio;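 for all read-outs here: NSCLC cells whose survival relies on EGFR L858R/T790M, exposed 72 h to serially diluted compound, ATP-based viability readout, with the H2073 line (wildtype EGFR dependent) as wildtype comparator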

T5 sequence (P35968 20-1356): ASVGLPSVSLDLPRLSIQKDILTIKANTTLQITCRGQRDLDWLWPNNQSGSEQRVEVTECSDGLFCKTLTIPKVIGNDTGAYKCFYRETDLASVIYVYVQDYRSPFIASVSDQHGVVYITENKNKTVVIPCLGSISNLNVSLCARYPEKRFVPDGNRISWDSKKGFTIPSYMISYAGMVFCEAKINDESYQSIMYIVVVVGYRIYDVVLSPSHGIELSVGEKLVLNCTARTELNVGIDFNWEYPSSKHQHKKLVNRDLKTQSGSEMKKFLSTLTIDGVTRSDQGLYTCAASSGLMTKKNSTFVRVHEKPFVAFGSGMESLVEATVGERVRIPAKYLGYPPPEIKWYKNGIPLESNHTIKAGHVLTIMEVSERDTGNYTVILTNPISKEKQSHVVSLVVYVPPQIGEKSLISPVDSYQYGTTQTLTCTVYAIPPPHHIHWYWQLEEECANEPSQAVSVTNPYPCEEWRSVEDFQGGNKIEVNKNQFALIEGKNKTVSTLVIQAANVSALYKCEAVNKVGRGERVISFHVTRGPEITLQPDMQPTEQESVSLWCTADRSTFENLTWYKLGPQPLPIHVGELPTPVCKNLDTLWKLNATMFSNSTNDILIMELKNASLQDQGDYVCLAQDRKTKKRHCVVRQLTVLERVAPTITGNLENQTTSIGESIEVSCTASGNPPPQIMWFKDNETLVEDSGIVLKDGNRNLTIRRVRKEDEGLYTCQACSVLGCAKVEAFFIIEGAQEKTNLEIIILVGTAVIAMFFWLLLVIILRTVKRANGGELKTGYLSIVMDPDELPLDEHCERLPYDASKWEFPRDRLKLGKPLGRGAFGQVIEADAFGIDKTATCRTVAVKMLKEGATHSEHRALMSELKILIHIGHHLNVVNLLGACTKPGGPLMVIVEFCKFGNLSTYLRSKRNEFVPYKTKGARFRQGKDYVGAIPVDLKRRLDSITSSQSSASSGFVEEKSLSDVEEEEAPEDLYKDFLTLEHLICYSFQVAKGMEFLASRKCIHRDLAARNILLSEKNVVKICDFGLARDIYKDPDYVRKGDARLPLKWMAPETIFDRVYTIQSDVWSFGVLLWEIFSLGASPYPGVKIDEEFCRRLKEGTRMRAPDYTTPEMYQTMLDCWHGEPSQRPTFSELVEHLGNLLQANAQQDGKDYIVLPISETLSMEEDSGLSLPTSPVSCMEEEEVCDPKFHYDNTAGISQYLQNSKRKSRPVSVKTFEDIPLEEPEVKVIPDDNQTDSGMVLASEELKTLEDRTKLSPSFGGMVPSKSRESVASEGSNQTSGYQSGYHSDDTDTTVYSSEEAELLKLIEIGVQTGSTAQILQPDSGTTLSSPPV
T2 sequence (P52333 822-1111 limits assumed): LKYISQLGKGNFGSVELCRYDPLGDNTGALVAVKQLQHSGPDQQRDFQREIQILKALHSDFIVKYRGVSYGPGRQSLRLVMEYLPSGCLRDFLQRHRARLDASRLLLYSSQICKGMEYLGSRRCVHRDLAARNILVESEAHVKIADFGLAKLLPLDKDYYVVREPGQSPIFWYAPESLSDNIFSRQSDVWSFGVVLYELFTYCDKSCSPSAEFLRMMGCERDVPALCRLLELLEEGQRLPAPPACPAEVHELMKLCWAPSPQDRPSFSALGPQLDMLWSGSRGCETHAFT

Row | Compound | Selectivity over wildtype, Wildtype vs mutant H2073/PC9 (fold) [1] | IC50 [1] [nM] | IC50 (EGFR mutant L858R/T790M) [nM] | IC50 (JAK3) [nM] | IC50 [2] [nM] | IC50 (SYK) [nM] | IC50 (KDR) [nM] | IC50 (EGFR mutant L858R) [nM] | IC50 (H2073 (EGFR wildtype); NCI-H2073) [nM] | IC50 (EGFR mutant T790M) [nM] | IC50 (EGFR mutant Del19/T790M) [nM] | IC50 ([3]; Homo sapiens, NCI-H1975) [nM] | Selectivity over wildtype, Wildtype vs mutant H2073/H1975 (fold) [3] | IC50 (EGFR mutant L858R/T790M; biochemical potency, 1 mM ATP) [nM] | IC50 ([2]; biochemical potency, 1 mM ATP) [nM] | IC50 (EGFR mutant L858R; biochemical potency, 1 mM ATP) [nM] | IC50 (H2073 (EGFR wildtype)) [nM] | IC50 (EGFR mutant Del19/T790M; biochemical potency, 1 mM ATP) [nM] | IC50 [3] [nM]
1 | C=CC(=O)Nc1cc(Nc2ncc(C)c(-n3cc(CN(C)C)c(C)n3)n2)c(OC)cc1N1CCOCC1 [Compound 75, N-(5-(4-(4-((dimethylamino)methyl)-3-methyl-1H-pyrazol-1-yl)-5-methylpyrimidin-2-ylamino)-4-methoxy-2-morpholinophenyl)acrylamide] | 101-200 fold | 20 to 200 | < 20 | < 20 | < 20 | 20 to 200 | > 1000 | < 20 | > 1000 | < 20 | < 20 | 20 to 200 | 101-200 fold | – | – | – | – | – | –
2 | C=CC(=O)Nc1cc(Nc2nccc(-n3cc(CN4CCC4)c(C)n3)n2)c(OC)cc1-c1ccccc1 [Compound 65, N-(4-(4-(4-(azetidin-1-ylmethyl)-3-methyl-1H-pyrazol-1-yl)pyrimidin-2-ylamino)-5-methoxybiphenyl-2-yl)acrylamide] | – | – | < 20 | 20 to 200 | < 20 | > 1000 | > 1000 | 20 to 200 | – | 201 to 1000 | < 20 | – | – | – | – | – | – | – | –
3 | C=CC(=O)Nc1cc(Nc2nccc(-n3cc(CN4CCC4)c(C4CC4)n3)n2)c(OC)cc1N1CCOCC1 [Compound 55, N-(5-(4-(4-(azetidin-1-ylmethyl)-3-cyclopropyl-1H-pyrazol-1-yl)pyrimidin-2-ylamino)-4-methoxy-2-morpholinophenyl)acrylamide] | >200 fold | < 20 | < 20 | < 20 | < 20 | > 1000 | > 1000 | < 20 | > 1000 | < 20 | < 20 | 20 to 200 | 101-200 fold | – | – | – | – | – | –
4 | C=CC(=O)Nc1cc(Nc2nccc(-n3cc(CN(C)C)c(C)n3)n2)c(OC)cc1N1CCN(CCF)CC1 [Compound 79, N-(5-(4-(4-((dimethylamino)methyl)-3-methyl-1H-pyrazol-1-yl)pyrimidin-2-ylamino)-2-(4-(2-fluoroethyl)piperazin-1-yl)-4-methoxyphenyl)acrylamide] | 101-200 fold | 20 to 200 | < 20 | < 20 | < 20 | 201 to 1000 | > 1000 | < 20 | > 1000 | < 20 | < 20 | 20 to 200 | 101-200 fold | – | – | – | – | – | –
5 | C=CC(=O)Nc1cc(Nc2ncc(Cl)c(-n3cc(CN4C[C@@H](O)[C@@H](O)C4)c(C)n3)n2)c(OC)cc1N1CCN(C)CC1 [Compound 54, N-(5-(5-chloro-4-(4-(((3R,4S)-3,4-dihydroxypyrrolidin-1-yl)methyl)-3-methyl-1H-pyrazol-1-yl)pyrimidin-2-ylamino)-4-methoxy-2-(4-methylpiperazin-1-yl)phenyl)acrylamide] | 20-100 fold | 20 to 200 | < 20 | < 20 | < 20 | > 1000 | > 1000 | 20 to 200 | > 1000 | < 20 | < 20 | 201 to 1000 | <20 fold | – | – | – | – | – | –
6 | C=CC(=O)Nc1cc(Nc2ncc(C)c(-n3cc(CN4CC(O)C4)cn3)n2)c(OC)cc1N1CCOCC1 [Compound 19, N-(5-(4-(4-((3-hydroxyazetidin-1-yl)methyl)-1H-pyrazol-1-yl)-5-methylpyrimidin-2-ylamino)-4-methoxy-2-morpholinophenyl)acrylamide] | 100-200 fold | < 20 | < 20 | < 20 | < 20 | 20 to 200 | 201 to 1000 | < 20 | > 1000 | < 20 | < 20 | 20 to 200 | 20-100 fold | – | – | – | – | – | –
7 | C=CC(=O)Nc1cc(Nc2ncc(Cl)c(-n3cc(CN4CC(O)C4)c(C)n3)n2)c(OC)cc1N1CCOCC1 [Compound 49, N-(5-(5-chloro-4-(4-((3-hydroxyazetidin-1-yl)methyl)-3-methyl-1H-pyrazol-1-yl)pyrimidin-2-ylamino)-4-methoxy-2-morpholinophenyl)acrylamide] | – | – | < 20 | < 20 | < 20 | 201 to 1000 | > 1000 | < 20 | – | < 20 | < 20 | – | – | – | – | – | – | – | –
8 | C=CC(=O)Nc1cc(Nc2nccc(-n3cc(CN4CCC4)c(C)n3)n2)c(OC)cc1N1CCN(C)CC1 [Compound 17, N-(5-(4-(4-(azetidin-1-ylmethyl)-3-methyl-1H-pyrazol-1-yl)pyrimidin-2-ylamino)-4-methoxy-2-(4-methylpiperazin-1-yl)phenyl)acrylamide] | – | – | < 20 | < 20 | < 20 | 201 to 1000 | 201 to 1000 | < 20 | – | < 20 | < 20 | – | – | – | – | – | – | – | –
9 | C=CC(=O)Nc1cc(Nc2ncc(C)c(-n3cc(CN4CCC4)cn3)n2)c(OC)cc1N1CCCOCC1 [Compound 40, N-(5-(4-(4-(azetidin-1-ylmethyl)-1H-pyrazol-1-yl)-5-methylpyrimidin-2-ylamino)-4-methoxy-2-(1,4-oxazepan-4-yl)phenyl)acrylamide] | – | – | < 20 | < 20 | < 20 | > 1000 | > 1000 | 20 to 200 | – | < 20 | < 20 | – | – | – | – | – | – | – | –
10 | C=CC(=O)Nc1cc(Nc2nccc(-n3cc(CN4CCC4)c(-c4ccc(C)cc4)n3)n2)c(OC)cc1N1CCOCC1 [Compound 82, N-(5-(4-(4-(azetidin-1-ylmethyl)-3-p-tolyl-1H-pyrazol-1-yl)pyrimidin-2-ylamino)-4-methoxy-2-morpholinophenyl)acrylamide] | 101-200 fold | 20 to 200 | < 20 | – | < 20 | > 1000 | > 1000 | 20 to 200 | > 1000 | – | < 20 | 20 to 200 | 101-200 fold | – | – | – | – | – | –
11 | C=CC(=O)Nc1cc(Nc2nccc(-n3cc(CN4CCC4)cn3)n2)c(OC)cc1N1CCOCC1 [Compound 34, N-(5-(4-(4-(azetidin-1-ylmethyl)-1H-pyrazol-1-yl)pyrimidin-2-ylamino)-4-methoxy-2-morpholinophenyl)acrylamide] | – | – | < 20 | 20 to 200 | < 20 | 201 to 1000 | > 1000 | 20 to 200 | – | < 20 | < 20 | – | – | – | – | – | – | – | –
12 | C=CC(=O)Nc1cc(Nc2nccc(-n3cc(CN(C)C)c(C)n3)n2)c(OC)cc1N1CCN(C)CC1 [Compound 47, N-(5-(4-(4-((dimethylamino)methyl)-3-methyl-1H-pyrazol-1-yl)pyrimidin-2-ylamino)-4-methoxy-2-(4-methylpiperazin-1-yl)phenyl)acrylamide] | – | – | < 20 | < 20 | < 20 | 201 to 1000 | > 1000 | < 20 | – | < 20 | < 20 | – | – | – | – | – | – | – | –
13 | 4-(3-((dimethylamino)methyl)-4-methyl-1H-pyrrol-1-yl)-N-(3,5-dimethylphenyl)pyrimidin-2-amine [Compound 146, reference compound] | <20 fold | > 1000 | – | – | – | 20 to 200 | – | – | – | > 1000 | – | – | <20 fold | 201 to 1000 | > 1000 | > 1000 | > 1000 | 201 to 1000 | > 1000
